Values after ≈ are worked out from the molar mass of the structure shown. Blank lines part the entries; values can stand above or below the compound they belong to.
Key:
Staphylococcus aureus = assay: MIC by broth microdilution against Staphylococcus aureus; assay type: cell-based; conditions: read-out: minimum inhibitory concentration (MIC)
[1] = test system: strain ATCC 33591 of MRSA; assay: MIC by broth microdilution against MRSA; conditions: MRSA ATCC 33591, 36° C. 48 h, Resazurin
[2] = test system: clinical isolates of Staphylococcus aureus; conditions: pure molecule; literature value; cited from earlier work

- MIC (Staphylococcus aureus): ≤ 1 µg/mL
SMILES: CC(C)C(=O)c1c2c(c3oc(=O)cc(-c4ccc(O)cc4)c3c1O)CC(C)(C)C=C2 [amarilin]

SMILES: Cl.O=C(O)c1cn(C2CC2)c2cc(N3CCNCC3)c(F)cc2c1=O [hydrochloride ciprofloxacin]
- minimum inhibitory concentration (MIC) [1]: 1 µg/mL

SMILES: C/C(=C\C(=O)OCCCCCCCCC(=O)O)C[C@@H]1OC[C@H](C[C@@H]2O[C@H]2[C@@H](C)[C@H](C)O)[C@@H](O)[C@H]1O [mupirocin]
- MIC value [2]: ~0.5 µg/mL (≈ 0.999 µM)

Reference: patent publication US20150335691A1, “PLANT EXTRACT OBTAINED FROM KIELMEYERA AUREOVINOSA WHICH HAS ANTIBIOTIC ACTIVITY, ISOLATED CHEMICAL COMPOUND, COMPOSITIONS COMPRISING SAME, USES THEREOF AND METHODS FOR PREVENTING AND TREATING BACTERIAL INFECTIONS” (EXTRACTA MOLÉCULAS NATURAIS S/A, priority 2011, published 2015)
